The values that follow come from PMC8165160, “Substrate Specificities and Inhibition Pattern of the Solute Carrier Family 10 Members NTCP, ASBT and SOAT” (Frontiers in Molecular Biosciences, 2021).

The test system of one experiment is HDV. Particulars: NTCP expressing HepG2 hepatoma cells, trans-inhibitory effect; ref Lowjaga et al., 2021; cited from earlier work.
For a further experiment, the target named is T1, SOAT (Homo sapiens, UniProt Q3KNW5).
T1 construct: The full-length open reading frames of NTCP, ASBT, and SOAT were cloned; expressed in transfected cells; host or cells: Flp-In T-REX HEK293 (SOAT-HEK293), tetracycline-induced
T1 sequence (Q3KNW5 1-377): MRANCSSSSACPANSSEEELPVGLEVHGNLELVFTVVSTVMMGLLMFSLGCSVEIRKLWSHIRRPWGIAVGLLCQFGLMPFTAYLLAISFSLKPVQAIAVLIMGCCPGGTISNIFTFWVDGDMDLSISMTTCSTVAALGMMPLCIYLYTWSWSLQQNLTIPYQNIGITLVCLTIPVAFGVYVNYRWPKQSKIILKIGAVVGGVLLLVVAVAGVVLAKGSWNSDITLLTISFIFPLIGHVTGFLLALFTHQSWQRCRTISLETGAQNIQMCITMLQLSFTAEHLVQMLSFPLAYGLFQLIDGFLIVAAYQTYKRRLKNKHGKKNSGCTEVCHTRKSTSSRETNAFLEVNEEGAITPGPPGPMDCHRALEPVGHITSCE
The experiment in a line: Transport kinetics (concentration-dependent uptake) in SOAT-HEK293 cells. The class given is cell-based. To be noted: uptake via SOAT, 1 min, 37°C. On the procedure: Cells were washed three times with phosphate buffered saline (PBS) (137 mM NaCl, 2.7 mM KCl, 1.5 mM KH2PO4, 7.3 mM Na2HPO4, pH 7.4, 37°C). Afterward, cells were preincubated at 37°C with sodium transport buffer (containing 142.9 mM NaCl, 4.7 mM KCl, 1.2 mM MgSO4, 1.2 mM KH2PO4, 1.8 mM CaCl2, and 20 mM HEPES (all chemicals from Sigma-Aldrich), adjusted to pH 7.4), or with choline transport buffer (equimolar substitution of sodium chloride with choline chloride). Uptake experiments were initiated by replacing the preincubation buffer by 500 μL transport buffer containing the radiolabeled test compound and were performed at 37°C. Transport was terminated by removing the transport buffer and washing five-times with ice-cold PBS. Cell monolayers were lysed in 1 N NaOH with 0.1% SDS and the cell-associated radioactivity was determined by liquid scintillation counting. Protein content of individual wells was determined by Lowry assay as reported before ([Geyer et al., 2007]).
FIGURE 2 NTCP, ASBT, and SOAT transport kinetics. Concentration-dependent uptake was analyzed in NTCP-HEK293, ASBT-HEK293, and SOAT-HEK293 cells for the indicated substrates at increasing substrate concentrations. […] Uptake was analyzed for 1 min at 37°C. Afterward, the medium was removed and each cell monolayer was washed and processed to determine the protein content and cell-associated radioactivity. […]

The structures appear in SMILES notation.

With `C[C@H](CCC(=O)NCCS(=O)(=O)O)[C@H]1CC[C@H]2[C@@H]3CC[C@@H]4C[C@H](O)CC[C@]4(C)[C@H]3CC[C@]12C` [Taurolithocholic acid], the “in vitro HDV infection” value in the experiment on HDV was “inhibited in vitro HDV infection”. Also, on SOAT, the “Apparent K m” value is reported as 19.3 ± 6.8 µM and the V max is 617 ± 57 pmol/mg protein/min.
